Data reported in patent US10537100B2, “Substituted methylenedioxybenzyl compounds and their use as synergists” (Endura SPA, priority 2015, dated 2020).

Legend:
[1] = system: CYP6CY3 from Myzus persicae; test: Inhibition of recombinant oxidase enzyme (P450) CYP6CY3, MFC substrate; type: biochemical; conditions: for inhibition activity compared with PBO: CYP6CY3, statement in text; for Myzus persicae CYP6CY3 percentage of activity remaining: recombinant enzyme 50 μL + 3 μL stock in acetone (Examples 1 and 2: 0.1 mM; PBO: 10 mM), 10 min incubation, MFC
Protocol: Ability of the synergists of the invention to inhibit oxidative enzymes (P450), a major mechanism conferring resistance to xenobiotics, was measured using recombinant enzymes corresponding to CYP6CY3 from Myzus persicae and CYP6CM1 from Bemisia tabaci.
The following synergists were tested in comparison with piperonyl butoxide (PBO): • 5-n-butyl-6-((prop-2-ynyloxy)methyl)benzo[d][1,3]dioxole the compound prepared in Example 2 • 5-n-hexyl-6-((prop-2-ynyloxy)methyl)benzo[d][1,3]dioxole the compound prepared in Example 1 CYP6CM1
For CYP6CY3, 7-ethoxycoumarin was not an appropriate substrate and MFC (7-methoxy-4-trifluoromethylcoumarin) was utilised instead. MFC was dissolved in dimethylsulfoxide to make a 20 mM stock solution and diluted by the addition of 0.1 M sodium phosphate buffer, pH 7.8, to give a concentration of 0.5 mM. Recombinant enzyme (10 μL) was added to separate wells of a microplate as before and diluted to 50 μL with 0.1 M phosphate buffer pH 7.6, followed by the addition of 80 μL of 0.5 mM MFC. The microplate was incubated for 5 min at 30° C., and the reaction was initiated by the addition of 10 μL of 9.6 mM NADPH in 0.1 M sodium phosphate, pH 7.8. Enzyme activity was read in a Spectramax Gemini EM for 60 min, with readings taken every 2 min, using an excitation wavelength of 410 nm and an emission wavelength of 510 nm, with a 495 nm cut-off filter. The rate (FU min^−1) was calculated by the integrated software, Softmax Pro v.5.4. as before.
For inhibition assays, stock solutions of the compounds of Example 1 and 2 (0.1 mM) were prepared in acetone. Dilute recombinant enzyme (50 μL) was mixed with 3 μL of stock solutions, with acetone only used as a control. After 10 min incubation at room temperature, 80 μL of 0.5 mM MFC was added, followed by 10 μL of 9.6 mM NADPH in 0.1 M sodium phosphate, pH 7.8. Enzyme activity remaining was then monitored as above. A PBO solution (10 mM) was prepared in the same way as a comparison.

[2] = system: Musca domestica; test: Contact test on treated glass surfaces, synergist with cypermethrin; type: in vivo; conditions: in combination with cypermethrin
Protocol: Laboratory bred Musca domestica species, 4-5 days old mixed sex imagoes derived from a field collected strain were assayed for the test. 1000 ml of test solutions were prepared diluting in water 6.06 grams of cypermethrin commercial formulation, equivalent to 0.224 g of cypermethrin per liter of insecticidal solution and a suitable amount of synergist such as to have a ratio between cypermethryn and synergists=1:13. The synergists were formulated in the form of emulsified concentrate (EC). The following amount of the formulations of synergist EC were added to the above described insecticidal solution of cypermethrin.
3.83 g of EC formulation containing 77.1% (w/w) of the compound of Example 2 (5-n-butyl-6-((prop-2-ynyloxy)methyl)benzo[d][1,3]dioxole)
3.57 g of EC formulation containing 83% (w/w) of the comparison compound 5-(but-2-ynyloxymethyl)-6-n-propyl-benzo[1,3]dioxole (EN126) corresponding to 2.95 g of the compound of the invention and of the comparison product per liter of test formulation
1 ml of each test formulation was applied to each individual grass surface of 100 cm^2 by means of a hand held pump sprayer on a scale measuring by 2 decimal precision, being the acceptable limit of divergence: +/−10%. The treated glass surfaces were left at room temperature for 24 hours after treatment and prior to be used. 40 mixed sex Musca domestica imagoes (20 males and 20 females) were selected and placed into a 500 cm^3 glass cylinders covered with an untreated glass surface until the start of the study. Five replicates were executed, altogether 200 houseflies (100 males and 100 females) were used per test formulation. At the beginning of the test, the untreated glass covering the glass cylinder was replaced with a glass surface treated with the test formulation. The exposure time was 30 minutes. After this period of time, the treated glass surfaces were removed and replaced with untreated ones. During the test water and food (water/sugar solution) were provided to the test insect inside the glass cylinders
In parallel with the test, the mortality of flies in an untreated control replicate was determined using the same conditions and methods. Throughout the control test, non-treated glass surfaces covered the glass cylinders. The maximum mortality rate allowed within the control group to consider the test representative was 10% after 24 hours. If above this value, the test was not considered representative and was repeated. During the trials, no deviance has been noted.
The test conditions were as follows: • temperature: 23-25° C. • relative humidity: min. 60% • light regime: 12 hrs dark/12 hrs natural illumination.
The reading intervals of the number of knocked down flies were: 10-20-30-40-50-60-90-120-180 minutes. Mortality was determined after 24 hours.
The efficacy was calculated according the following formula

[3] = system: Blattella germanica; test: Contact test on treated glass vials, synergist with cypermethrin; type: in vivo
Protocol: Laboratory bred B. germanica species, mixed ages (pre-immaginal and imagoes) and mixed sex were assayed for the test.
An insecticide stock solution was prepared with 150 μL of cypermethrin commercial formulation and diluted to 15 μL/mL with technical acetone to a final volume of 10 mL. The solution contained 450 μg/mL of cypermethrin per liter of insecticidal solution
Stock solution of the compounds of Example 1 and Example 2 were prepared dissolving around 10 mg of EC formulations containing compounds of the Example 1 and Example 2 in technical acetone to have a final concentration of 1.365 μg/mL.
Stock solution (1650 μL) was diluted to 2250 μL with acetone or with stock of insecticide in acetone to have respectively a final concentration of 1 g/L of synergist (as active ingredient) or 0.12 g/L of cypermethrin+1 g/L of the compounds of Example 1 and Example 2. Insecticide alone was prepared adding 600 μL of stock solution to 1650 μL of acetone.
Glass vials (internal surface 35 cm^2) were treated with 350 μL of insecticide solution and allowed to dry in a fume hood on a vial rotator and used as soon as the acetone was fully evaporated.
B. germanica specimens were introduced singly in vials. 20 specimens were tested for each combination of product. The exposure time to product residues was 30 minutes. After this duration the specimens were transferred to an untreated vial ad provided with food and water.
In parallel within the test, a control study has been set up with the same conditions and methods using acetone only treated vials.
The test conditions were as follows: • temperature: 22-24° C. during knock down evaluation (t: 0-30′); 26° C. during mortality assessment (t: 24 h) • relative humidity: min. 60% • light regime: 8 hrs dark/16 hrs natural illumination.
The reading intervals of the number of knocked down and the number of dead insects were: 5-10-15-20-25-30 minutes. A final reading was done 24 hours after the starting of the exposure.
The calculation model of efficacy is according to Abbott's formula (Abbott W S (1925) A method for computing the effectiveness of an insecticide. J. Econ. Entomol. 18: 265-267):
The results are reported in the following Table 5 and represent an average of 4 repetitions.

C#CCOCc1cc2c(cc1CCCC)OCO2 [Compound of Example 2, 5-n-butyl-6-((prop-2-ynyloxy)methyl)benzo[d][1,3]dioxole]
inhibition activity compared with PBO [1]: better than PBO | Myzus persicae CYP6CY3 percentage of activity remaining [1]: 4.04% | efficacy compared with comparison product EN126 [2]: better efficacy | knock down activity compared with comparison product EN126 ([2]; clearly notable at short times): better knock down activity | synergist effect when mixed with Cypermethrin [3]: synergist effect

C#CCOCc1cc2c(cc1CCCCCC)OCO2 [Compound of Example 1, 5-n-hexyl-6-((prop-2-ynyloxy)methyl)benzo[d][1,3]dioxole]
inhibition activity compared with PBO [1]: better than PBO | Myzus persicae CYP6CY3 percentage of activity remaining [1]: 8.51% | synergist effect when mixed with Cypermethrin [3]: synergist effect
